Source: patent US9808470B2, “Estrogenic components for use in the treatment of neurological disorders” (UNIVERSITE DE LIEGE, priority 2012, dated 2017)

Tests used:
doublecortin (DCX) = assay: Ex.8 neuroprotective HIE rat model: doublecortin staining; format: in vivo; details: 5 mg/kg/day E4, DG
Protocol: Newborn rat pups were assigned to one of the following 14 groups from postnatal day 4 (FIG. 23(A)): Sham group (n=12), Vehicle group (n=17), 5 mg/kg/day E4 (n=13), 10 mg/kg/day E4 (n=10), 5 mg/kg/day E4+1.6 mg/kg/day PROG (n=11), 10 mg/kg/day E4+1.6 mg/kg/day PROG (n=11), 5 mg/kg/day E4+16 mg/kg/day PROG (n=11), 10 mg/kg/day E4+16 mg/kg/day PROG (n=11), 5 mg/kg/day E4+136 ng//kg/day E2 (n=11), 10 mg/kg/day E4+136 ng/kg/day E2 (n=11), 5 mg/kg/day E4+1.6 mg/kg/day PROG+136 ng/kg/day (n=13) E2, 10 mg/kg/day E4+1.6 mg/kg/day PROG+136 ng/kg/day E2 (n=16), 5 mg/kg/day E4+16 mg/kg/day PROG+136 ng/kg/day E2 (n=11), 10 mg/kg/day E4+16 mg/kg/day PROG+136 ng/kg/day groups (n=13). Intraperitoneal injections of the pups from study groups were performed from postnatal day 4 to postnatal day 7 inclusively. […]
The sections were heated in 10 mmol/L citrate buffer (pH 6.0) at 100° C. for 10 minutes. […] Samples were analyzed with the aid of a microscope (Olympus Vanox AHBT3, Olympus), and the ImageJ software 15 (NIH). The percentage of positively stained cells was quantified as a sum of positively stained either DCX or VEGF cells divided by the total number of DAPI positive cells expressed in percentage.

MCF-7 cells = details: compared to E2; cited from earlier work
[1] = system: myelin-related mRNA (CNP, MAG, MBP); assay: Ex.6 IL-1β induced diffuse white matter injury mouse model: myelin gene expression at P10 (qRT-PCR); format: in vivo
Protocol: Experimental protocols were approved by the institutional guidelines of the Institut National de la Santé et de la Recherche Scientifique (Inserm, France), and met the guidelines for the United States Public Health Service's Policy on Humane Care and Use of Laboratory Animals (NIH, Bethesda, Md., USA). Experiments were performed using OF1 strain mice purchased from Charles River (L'Arbresle, France) and born in our animal facility. Animals were housed under a 12 h light-dark cycle, had access to food and water ad libitum. Sex was determined at birth and confirmed at sacrifice. To avoid any potential variability linked to sex to differences. only male pups were used. Mice received twice a day from P1 to P4 and once on P5 a 5 μl intraperitoneal injection containing either PBS alone (sham group) or 10 μg/kg/dose recombinant mouse IL-1β in PBS. Vehicle group received only IL-1β injections while 10 μg E4 (5 mg/kg) or 20 μg E4 (10 mg/kg) was added to IL-1β once a day from P1 to P5 for E4 treated groups. Pups were sacrificed 3 hours after the first intraperitoneal injection at P1, 3 hours after last treatment at P5 or at P10 by intracardiac perfusion with NaCl 0.9% after anaesthesia by inhaled isoflurane.
At P10, anterior cortex and underneath white matter were collected and immediately frozen in nitrogen liquid, before storage at −80° C. for study of myelin-related mRNA expression.
Preparation of samples for quantitative reverse-transcriptase polymerase-chain reaction (qRT-PCR), primer design, and PCR protocol, were similar to that previously described (Favrais et al., 2011; Chhor et al., 2013). Briefly, RNA extraction was performed by with RNeasy mini kit according to the manufacturer's instructions (Qiagen, Courtaboeuf, France). RNA quality and concentration were assessed by spectrophotometry with the Nanodrop™ apparatus (Thermoscientific, Wilmington, Del., USA). Total RNA (0.5-1 μg) was subjected to reverse transcription using the iScript™ cDNA synthesis kit (Bio-Rad, Marnes-la-Coquette, France). qPCR was using SYBR Green Supermix (Bio-Rad). The relative expression of genes of interest (GOI) were expressed relative to expression of the reference gene, ribosomal protein L13a (Rpl13a) for CD11b+ cells and Glyceraldehyde 3-phosphate dehydrogenase (GAPDH) for O4+ cells and anterior brains based on reference gene suitability testing. Analyses were performed with the Biorad CFX manager 2.1 software. The relative quantities are expressed as the specific ratio between the gene of interest and Rpl13 or GAPDH. The data are presented as relative mRNA units with respect to control values (expressed as a fold-difference with respect to the mean of sham values).

C[C@]12CC[C@@H]3c4ccc(O)cc4CC[C@H]3[C@@H]1[C@@H](O)[C@@H](O)[C@@H]2O [E4, 1,3,5(10)-estratrien-3,15α,16α,17β-tetrol]
percentage of DCX positively stained cells (doublecortin (DCX)): 60.29±5.66%
estrogenic activity in growth promotion of MCF-7 cells (MCF-7 cells): weak estrogen
CNP mRNA ([1]; E4 5 mg/kg, vs IL-1β): significant increase
MAG mRNA ([1]; E4 5 mg/kg, vs IL-1β): significant increase
MBP expression ([1]; E4 5 mg/kg, vs control group): not statistically different
MBP expression, increase ([1]; E4 5 mg/kg, vs vehicle group (p=0.11)): not significant
expression of myelin genes (MAG, MBP, CNP) ([1]; IL-1β+E4 10 mg/kg, vs IL-1β): No difference
